For the assay, the target named is T1, human M4 muscarinic acetylcholine receptor (Homo sapiens, UniProt P08173).
T1 construct: expressed in transfected cells; host or cells: CHO-K1
T1 sequence (P08173 1-479): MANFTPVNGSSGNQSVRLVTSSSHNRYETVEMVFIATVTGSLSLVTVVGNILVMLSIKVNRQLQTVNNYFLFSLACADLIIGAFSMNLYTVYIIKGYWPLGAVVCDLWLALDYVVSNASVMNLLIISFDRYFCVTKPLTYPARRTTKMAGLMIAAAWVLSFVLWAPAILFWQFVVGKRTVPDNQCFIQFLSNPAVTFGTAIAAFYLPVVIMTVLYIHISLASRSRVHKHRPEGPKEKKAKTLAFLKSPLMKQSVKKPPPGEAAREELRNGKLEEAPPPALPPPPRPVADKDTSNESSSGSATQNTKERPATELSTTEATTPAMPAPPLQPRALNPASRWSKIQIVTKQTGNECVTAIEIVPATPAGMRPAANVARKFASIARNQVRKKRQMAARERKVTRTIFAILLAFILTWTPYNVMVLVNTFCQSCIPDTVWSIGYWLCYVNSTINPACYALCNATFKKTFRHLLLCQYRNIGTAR
The assay is described as follows: human FLIPR-based M4 PAM assay (Ca2+ mobilization, CHO-K1 cells with human M4 receptor and Gαqi5). It is filed as cell-based. The conditions noted are these: acetylcholine at 20% of maximum response, read-out: M4 PAM IP. In outline: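 Calcium-mobilization (FLIPR) readout in dye-loaded CHO-K1 cells co-expressing human M4 receptor and Gαqi5. Potentiation measured against acetylcholine at a concentration giving 20% of maximal response, with an optional 70% addition; the reported value is the curve inflection point from a 4-parameter logistic fit.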
Background: Calcium assays in cells follow changes in intracellular calcium, usually with a dye or a luminescent sensor.
With `Cc1c(N2CC[C@@H](OCC3(C)CC3)[C@@H](F)C2)nc2c(c1C)C(=O)N(CCO)C2` [Example 268F, 2-((3S,4R)-3-fluoro-4-((1-methylcyclopropyl)methoxy)piperidin-1-yl)-6-(2-hydroxyethyl)-3,4-dimethyl-6,7-dihydro-5H-pyrrolo[3,4-b]pyridin-5-one], the EC50 was determined as 39 nM.

For the molecule `Cc1cc2c(nc1N1CCC(Oc3ccc4c(c3)nc(C)n4C)CC1)CNC2=O` [Example 209, 2-(4-((1,2-dimethyl-1H-benzo[d]imidazol-5-yl)oxy)piperidin-1-yl)-3-methyl-6,7-dihydro-5H-pyrrolo[3,4-b]pyridin-5-one], the EC50 was found to be 2650 nM.

Turning to `CCc1cc2c(nc1N1CCC(Oc3ccc4c(c3)COC4)CC1)CN(CCO)C2=O` [Example 258, 2-(4-((1,3-dihydro-2-benzofuran-5-yl)oxy)piperidin-1-yl)-3-ethyl-6-(2-hydroxyethyl)-6,7-dihydro-5H-pyrrolo[3,4-b]pyridin-5-one], the EC50 was determined as 126 nM.

Take `CCc1cc2c(nc1N1CCC(Oc3ccc4c(c3)COC4)CC1)[C@H](CO)N(C)C2=O` [Example 352, can-2-(4-((1,3-dihydro-2-benzofuran-5-yl)oxy)piperidin-1-yl)-3-ethyl-7-(hydroxymethyl)-6-methyl-6,7-dihydro-5H-pyrrolo[3,4-b]pyridin-5-one]: the EC50 amounted to 2100 nM.

With `CCc1cc2c(nc1N1CC[C@H](OCC3(C)CC3)[C@@H](F)C1)CNC2=O` [Example 6A, 3-ethyl-2-((3S,4S)-3-fluoro-4-((1-methylcyclopropyl)methoxy)piperidin-1-yl)-6,7-dihydro-5H-pyrrolo[3,4-b]pyridin-5-one], the EC50 was 150 nM.

On to `Cc1cc2c(nc1N1CCC(Oc3cncc(CO)c3)CC1)CNC2=O` [Example 156, 2-(4-((5-(hydroxymethyl)pyridin-3-yl)oxy)piperidin-1-yl)-3-methyl-6,7-dihydro-5H-pyrrolo[3,4-b]pyridin-5-one], for which the EC50 is 1220 nM.

With `Cc1cc2c(nc1N1CCC(Oc3ccc4nc(C)n(C)c4c3)CC1)CNC2=O` [Example 210, 2-(4-((1,2-dimethyl-1H-benzo[d]imidazol-6-yl)oxy)piperidin-1-yl)-3-methyl-6,7-dihydro-5H-pyrrolo[3,4-b]pyridin-5-one], the EC50 was found to be 2580 nM.

In the case of `Cc1cc2c(nc1N1CCC(Oc3ccnc(OC(F)(F)F)c3)CC1)CNC2=O` [Example 102, 3-methyl-2-(4-((2-(trifluoromethoxy)pyri-din-4-yl)oxy)piperidin-1-yl)-6,7-dihydro-5H-pyrrolo[3,4-b]pyridin-5-one], the EC50 worked out at 690 nM.

Regarding `Cc1cc2c(nc1N1CCC(OC[C@]3(C)C[C@H]3F)CC1)CNC2=O` (single isomer, unassigned) [Example 160C], the EC50 amounted to 58 nM.

For the molecule `Cc1c(N2CCC(OCC3CCC3)CC2)nc2c(c1C)C(=O)N(CCO)C2` [Example 267B, 2-(4-(cyclobutylmethoxy)piperidin-1-yl)-6-(2-hydroxyethyl)-3,4-dimethyl-6,7-dihydro-5H-pyrrolo[3,4-b]pyridin-5-one], the EC50 came to 80 nM.

Take `Cc1cc2c(nc1N1CCC(Oc3ccc4ncoc4c3)CC1)CNC2=O` [Example 89, 2-(4-(benzo[d]oxazol-6-yloxy)piperidin-1-yl)-3-methyl-6,7-dihydro-5H-pyrrolo[3,4-b]pyridin-5-one]: the EC50 is 83 nM.

For the molecule `Cc1cc2c(nc1N1CCC(Oc3ccc(OCCO)nc3)CC1)CNC2=O` [Example 170, 2-(4-((6-(2-hydroxyethoxy)pyridin-3-yl)oxy)piperidin-1-yl)-3-methyl-6,7-dihydro-5H-pyrrolo[3,4-b]pyridin-5-one], the EC50 worked out at 40 nM.

Regarding `Cc1cc2c(nc1N1CCC(Oc3ccc4[nH]ccc4c3)CC1)CNC2=O` [Example 26, 2-(4-((1H-indol-5-yl)oxy)piperidin-1-yl)-3-methyl-6,7-dihydro-5H-pyrrolo[3,4-b]pyridin-5-one], the EC50 turned out to be 28 nM.

For the molecule `CO[C@@H]1Cc2ccc(OC3CCN(c4nc5c(c(C)c4C)C(=O)NC5)CC3)cc2C1` [Example 335A, (R)-2-(4-((2-methoxy-2,3-dihydro-1H-inden-5-yl)oxy)piperidin-1-yl)-3,4-dimethyl-6,7-dihydro-5H-pyrrolo[3,4-b]pyridin-5-one], the EC50 was determined as 245 nM.

With `COc1ccc(OC2CCN(c3nc4c(cc3C)C(=O)N(CCO)C4)CC2)cn1` [Example 238, 6-(2-hydroxyethyl)-2-(4-((6-methoxypyridin-3-yl)oxy)piperidin-1-yl)-3-methyl-6,7-dihydro-5H-pyrrolo[3,4-b]pyridin-5-one], the EC50 turned out to be 49 nM.

Consider `Cc1cc2c(nc1N1CC[C@@H](Oc3ccc4c(c3)COC4)[C@H](F)C1)[C@@H](CO)N(C)C2=O` [Example 280A, (S)-2-((3R,4R)-4-((1,3-dihydro-2-benzofuran-5-yl)oxy)-3-fluoropiperidin-1-yl)-7-(hydroxymethyl)-3,6-dimethyl-6,7-dihydro-5H-pyrrolo[3,4-b]pyridin-5-one], for which the EC50 was 14 nM.

On to `Cc1cc2c(nc1N1CCC(Oc3cnc4c(c3)COC4)CC1)CNC2=O` [Example 48, 2-(4-((5,7-dihydrofuro[3,4-b]pyridin-3-yl)oxy)piperidin-1-yl)-3-methyl-6,7-dihydro-5H-pyrrolo[3,4-b]pyridin-5-one], for which the EC50 was 61 nM.

Regarding `COc1ccc(O[C@@H]2CCN(c3nc4c(cc3C)C(=O)N(C)[C@@H]4CO)C[C@H]2F)cn1` [Example 282A, (S)-2-((3R,4R)-3-fluoro-4-((6-methoxypyridin-3-yl)oxy)piperidin-1-yl)-7-(hydroxymethyl)-3,6-dimethyl-6,7-dihydro-5H-pyrrolo[3,4-b]pyridin-5-one], the EC50 was 38 nM.

Regarding `CCC1c2nc(N3CCC(Oc4ccc(OC)nc4)CC3)c(C)cc2C(=O)N1CC` (stereo not shown) [Example 233, 6,7-Diethyl-2-(4-((6-methoxypyridin-3-yl)oxy)piperidin-1-yl)-3-methyl-6,7-dihydro-5H-pyrrolo[3,4-b]pyridin-5-one], the EC50 amounted to 394 nM.

Take `COc1ccc(OC2CCN(c3nc4c(cc3C)C(=O)N(Cc3ccncc3)C4)CC2)cn1` [Example 259, 2-(4-((6-methoxypyridin-3-yl)oxy)piperidin-1-yl)-3-methyl-6-(pyridin-4-ylmethyl)-6,7-dihydro-5H-pyrrolo[3,4-b]pyridin-5-one]: the EC50 amounted to 87 nM.

For the molecule `Cc1cc2c(nc1N1CCC(Oc3ccc4c(c3)C(=O)CO4)CC1)CNC2=O` [Example 139A, 3-methyl-2-(4-((3-oxo-2,3-dihydrobenzofuran-5-yl)oxy)piperidin-1-yl)-6,7-dihydro-5H-pyrrolo[3,4-b]pyridin-5-one], the EC50 was found to be 628 nM.

Turning to `Cc1cc2c(nc1N1CCC(Oc3ccc4c(c3)C(=O)NCC4)CC1)CNC2=O` [Example 135, 7-((1-(3-methyl-5-oxo-6,7-dihydro-5H-pyrrolo[3,4-b]pyridin-2-yl)piperidin-4-yl)oxy)-3,4-dihydroisoquinolin-1(2H)-one], the EC50 came to 217 nM.

Take “3-methyl-2-(4-(3,3,3- trifluoro-2- hydroxypropoxy)piperi- din-1-yl)-6,7-dihydro- 5H-pyrrolo[3,4- b]pyridin-5-one [Example 179]”: the EC50 amounted to 168 nM.

Turning to `Cc1cc2c(nc1N1CCC(Oc3cnc4c(c3)CCCO4)CC1)CNC2=O` [Example 194, 2-(4-((3,4-dihydro-2H-pyrano[2,3-b]pyridin-6-yl)oxy)piperidin-1-yl)-3-methyl-6,7-dihydro-5H-pyrrolo[3,4-b]pyridin-5-one], the EC50 was determined as 532 nM.

Take `CCc1cc2c(nc1N1CCC(OCC3(C)CC3)CC1)[C@H](CO)N(C)C2=O` [Example 342, (R)-3-ethyl-7-(hydroxymethyl)-6-methyl-2-(4-((1-methylcyclopropyl)methoxy)piperidin-1-yl)-6,7-dihydro-5H-pyrrolo[3,4-b]pyridin-5-one]: the EC50 came out at 3440 nM.

For `Cc1cc2c(nc1N1CCC(Oc3ccc(N4CCC4)nc3)CC1)CNC2=O` [Example 105, 2-(4-((6-(azetidin-1-yl)pyridin-3-yl)oxy)piperidin-1-yl)-3-methyl-6,7-dihydro-5H-pyrrolo[3,4-b]pyridin-5-one], the EC50 came out at 104 nM.

In the case of `Cc1cc2c(nc1N1CCC(Oc3ccc4c(cnn4CCO)c3)CC1)CNC2=O` [Example 371, 2-(4-((1-(2-Hydroxyethyl)-1H-indazol-5-yl)oxy)piperidin-1-yl)-3-methyl-6,7-dihydro-5H-pyrrolo[3,4-b]pyridin-5-one], the EC50 is 100 nM.

For the molecule `COc1cc(OC2CCN(c3nc4c(cc3C)C(=O)NC4)CC2)ccn1` [Example 90, 2-(4-((2-methoxypyridin-4-yl)oxy)piperidin-1-yl)-3-methyl-6,7-dihydro-5H-pyrrolo[3,4-b]pyridin-5-one], the EC50 was 94 nM.

In the case of `Cc1cc2c(nc1N1CCC(Oc3cccc(C#N)c3)CC1)CNC2=O` [Example 3, 3-((1-(3-methyl-5-oxo-6,7-dihydro-5H-pyrrolo[3,4-b]pyridin-2-yl)piperidin-4-yl)oxy)benzonitrile], the EC50 was 25 nM.

As for `Cc1cc2c(nc1N1CCC(Oc3cnc4c(c3)COC4)CC1)[C@H](CO)N(C)C2=O` [Example 277A, (R)-2-(4-((5,7-dihydrofuro[3,4-b]pyridin-3-yl)oxy)piperidin-1-yl)-7-(hydroxymethyl)-3,6-dimethyl-6,7-dihydro-5H-pyrrolo[3,4-b]pyridin-5-one], the EC50 worked out at 30000 nM.

In the case of `COc1ccc(OC2CCN(c3nc4c(cc3C)C(=O)NC43CC3)CC2)cn1` [Example 300], the EC50 came out at 286 nM.

(Values after patent publication US10329289B2, “6,7-dihydro-5H-pyrrolo[3,4-B]pyridin-5-one allosteric modulators of the M4 muscarinic acetylcholine receptor” (Merck Sharp & Dohme Corp., priority 2015, dated 2019).)
